melting point [°C]	SMILES
156	Cc1cc(Nc2ccc(F)cc2)nc(Nc2ccc(S(=O)(=O)N(C)C3CCN(Cc4ccoc4)CC3)cc2)n1
98 to 100	COc1cccc(CCc2c(CC#N)ccc(OC)c2OC)c1
91 to 94	COC(=O)NCc1cccc(-c2ccccc2)c1C
221	COc1ccc2c(c1)C(=O)c1nc(-c3ccccc3)sc1C2=O
219 to 220	COc1ccc(/C=C/C(=O)c2ccc(C(=O)O)cc2)cc1-c1cccs1
92 to 94	CCCCOc1ccc(NC(=O)CNc2ccccc2F)cc1
125	COc1cccc([C@H]2SC[C@@H](C(=O)OC(C)(C)C)N2C(=O)CNC(=O)Nc2cccc(C(=O)O)c2)c1
80 to 81	CCOC(=O)CC(=O)Nc1cccc2ccccc12
114 to 115	CSc1cccc(-c2ccccc2N)c1
88 to 90	CS(=O)(=O)c1ccc(-c2cnn(Cc3ccccc3)c(=S)c2-c2ccc(F)cc2)cc1
105 to 106	CCc1cn(C)c(C2Cc3ccccc3N2C(C)=O)n1 (centres undefined)
140 to 142	COc1ccc(-c2ccccc2)c(NC(=N)N2CCOCC2)c1
160	CCOC(=O)Cc1nn(CC(=S)Nc2cc(C(F)(F)F)ccc2Br)c(=O)c2ccccc12
111 to 114	C#CCN(C(=O)c1cnccc1C(F)(F)F)S(=O)(=O)c1cccc(C)c1
162 to 164	COC(=O)c1cc2ccc(OC)cc2c2c1C=CC(c1ccc(OC)cc1)(c1ccc(OC)cc1)O2
165 to 168	COc1cc(OCc2ccccn2)ccc1/C=C/C(=O)CC(=O)/C=C/c1ccc2cc[nH]c2c1
140 to 142	COC(=O)c1cnc(CNC(=O)c2ccccc2)c2ccccc12
62.7	COc1ccc(C=C2c3ccccc3CCc3ccccc32)cc1N
68 to 76	COc1ccc(S(=O)(=O)NC=NCCSCc2csc(NC=NN)n2)cc1
226 to 228	Cc1nc(N2CCN(Cc3ccccc3)C2=NC#N)sc1C(=O)NCc1ccccc1
153	CNS(=O)(=O)c1cc(C(=O)CCl)ccc1Cl

melting point [°C]	SMILES
107 to 110	COc1ccc(-c2cc(-c3ccccc3)c(-c3ccccc3)s2)c(OC)c1
130 to 147	CCn1c2ccccc2c2cc(OC)c(C(=O)O)cc21
192 to 194	CCOc1cc(OCCCc2cn(-c3ccc(C(F)(F)F)cn3)nc2O)ccc1CCC(=O)O
127	CN(C(=O)c1ccccc1N)c1ccccc1
104 to 106	CNC(=C[N+](=O)[O-])NCCSCc1nc(CN(C)C)sc1C
181 to 182	COC(=O)c1cc(O)ccc1NC(=O)c1ccc(Cl)cc1Cl
132	CC(C)(Oc1ccc2c(-c3ccc(Cl)cc3)noc2c1)C(=O)O
119 to 120	Cc1cccc(N2CCN(CCCCNC(=O)c3cc4ccccc4o3)CC2)c1
157 to 159	O=C(O)c1ccc(NCCCCCCOc2ccc3ccccc3c2)cc1
160 to 162	O=C(Nc1nc(-c2ccco2)c(C(=O)C2CCOCC2)s1)c1ccc(CN2CCCCC2)cc1
158 to 160	COc1ccc(COC(=O)CC(=O)Oc2ccc3sc4nc(-c5ccc(OC)cc5)cn4c3c2)cc1
107 to 115	CCCn1cc(Cc2ccc(C(=O)NS(=O)(=O)c3ccccc3C)cc2OC)c2cc(CC3CCN(CC)C3=O)ccc21 (centres undefined)
106 to 107	C=C(C)COc1ccc(C(=O)C=Cc2ccc(OC)cc2OC)c(O)c1
120 to 121	COc1ccc2c(c1)OCC(C(=O)O)O2 (centres undefined)
169 to 172	C=CCONC(=O)c1nc(-c2ccc(Cl)c(OC)c2F)cc(N)c1Cl
188 to 191	Nc1nc2ccc(Cc3cccs3)cc2s1
53 to 55	O=C1c2ccccc2C(=O)N1CCSCCc1ccco1
118 to 120	COC(=O)c1ccc(CN(C(C)C)S(=O)(=O)c2ccc(F)cc2)cc1
126 to 128	C=CCNc1nc(NCCN)nc2ccc([N+](=O)[O-])cc12
180 to 182	COc1ccc2c(c1)c(Cc1cc(=O)n(-c3ccc(C(F)(F)F)cc3)[nH]1)c(C)n2C(=O)c1ccc(Cl)cc1
222 to 224	CCOC(=O)c1cnc(-c2cc([N+](=O)[O-])ccc2OCC)[nH]c1=O

Further lines, the molecule ahead of its results:

SMILES	melting point [°C]
O=C1C(=O)N(c2cccc3ccccc23)C(=O)N1c1ccc(Cl)cc1	158
CCCc1c(OCCCCCOc2cc(OCCCC(=O)OC)ccc2CCC(=O)OC)ccc2c1OCCC2=O	58 to 59
Cc1c(Cc2ccccc2)c2c(c(C)c1NC(=O)CC(C)(C)C)CC(C)(C)O2	129 to 130
Nc1nc(N)c2ncn(C3COC(CO)O3)c2n1 (single isomer, unassigned; (-))	237 to 239
Cc1cc(=O)n(-c2cc(C(=O)OC(C)C)c(Cl)cc2F)c(=O)n1C(F)F	90 to 93
O=Cc1cc(Cc2cccnc2)ccc1O	130 to 132
CCCCCCCCc1c(C)[nH]c(C)c(C#N)c1=O	205 to 206
Cn1nnnc1-c1cn(C)c2ccccc2c1=O	220 to 222
Nc1ccccc1C(=O)Nc1cc2c(cc1F)OCC(=O)N2	251 to 252
COC(=O)Cc1cn(C2CCCCC2)nc1O	135 to 136
Cc1ccc(C(=O)N[C@@H]2COc3c(C)ccc(N4CCN(C)CC4)c3C2)cc1	191 to 192
O=C(O)C1Cc2c(c(Br)cc3c(=O)c4ccccc4oc23)O1 (centres undefined)	283 to 286
CNC(=O)Nc1ccc2[nH]cc(C3CCN(C)CC3)c2n1	229 to 230
CCOC(=O)NC[C@H]1CN(c2ccc3c(c2)CCCc2cnoc2-3)C(=O)O1	181 to 183
Nc1cc([N+](=O)[O-])c(N)cc1Cl	157
CCN(CC)c1ccc(Cn2nc(-c3ccccc3O)nc2-c2ccccc2O)cc1	125 to 127
O=C(O)c1cc(=O)c2cc(-c3ccccc3)ccc2s1	220
CC(=O)OCC1Cc2cc(I)ccc2N1 (centres undefined)	64 to 66
COc1nc(N)nc2c1ncn2[C@H]1C[C@H](O)[C@@H](CO)O1	155 to 157

SMILES	melting point [°C]
CCN1CN(c2ccc(Cl)cc2)c2ncccc2C1=O	100 to 101
Nc1ccc(C(=O)c2cc(F)ccc2F)cc1	101 to 103
COc1cc(OC)cc(-c2ncn(C)c2-c2cc(F)c(F)c(F)c2)c1	159 to 160
O=C(O)Cc1c(C(=O)c2ccccc2)[nH]c2cc(Cl)cc(Cl)c12	214 to 218
CCCCNc1nc(C)nc2c1nnn2-c1ccc(C(C)C)cc1Br	149 to 151
OC1CSC(Oc2cncc(-c3ccc(F)cc3F)c2)C(O)C1O (centres undefined)	221
OCC1CC(F)C(n2cnc3c(Cl)ncnc32)O1 (centres undefined)	157 to 158
CC(C)[C@H](OCc1ccccc1)[C@H]1[C@H]([N+](=O)[O-])[C@H](C(C)(C)C)N[C@@H]1C(=O)NCC(=O)O	119 to 120
CCCCCCCCCCCCCCCC(=O)CSC	38 to 40
CC(C)c1cc(O)cc2c1C(=O)N(CSc1ccccc1)S2(=O)=O	127 to 130
O=C([C@@H]1CCCN1C(=O)CC1CCc2ccccc2C1)N1CCCC1 (some centres undefined)	104 to 106
Cc1ccc(-n2c(=O)cc(C(F)(F)F)[nH]c2=S)cc1OC(C)C	227 to 228
CC1C(S(=O)(=O)c2ccccc2)CCCC12OCCO2 (centres undefined)	76 to 77
CNCCc1cc2c(cc1CC(=O)c1ccc(OC)c(OC)c1C(=O)O)OCO2	176 to 179
O=c1[nH]c2cc(Br)cc(Br)c2c(=O)n1Cc1ccccc1Cl	133 to 136
O=C1Nc2cccc(C(F)(F)F)c2C(=O)N2CCC[C@@H]12	176 to 178
CC[C@@H]1O[C@](/C=C/C2CC2)(C(F)(F)F)c2cc(F)ccc2NC1=O (relative stereo)	148 to 149
CC1(C)SC(=S)N(Cc2cccs2)C(=O)C1NC(=O)c1ccc(Cl)cc1 (centres undefined)	176 to 177
O=C(NCCCCN1CCC(c2c[nH]c3ccccc23)CC1)c1sc(-c2ccc(C(F)(F)F)cc2)nc1CO	235

SMILES	melting point [°C]
C=CCCc1ccc(C(N)=O)c(O)n1	195 to 198
O=C(OCc1ccccc1)N1CCC(O)(Cn2nc(-c3c(-c4ccccc4)nn4ccccc34)ccc2=O)CC1	176 to 177
CCOC(=O)C(NC(C)=O)(C(=O)OCC)[C@@H]1CC(=O)C[C@H]1N=[N+]=[N-] (relative stereo)	121 to 122
Nc1cccc(-c2ccc(-c3ccc(CCN4CC5C(N)C5C4)cc3)cc2)n1 (centres undefined)	205
CC(C)C(CO)CS(N)(=O)=O (centres undefined)	83 to 84
OCc1ccc(-c2ccccc2-c2nnn(C(c3ccccc3)(c3ccccc3)c3ccccc3)n2)cc1	168 to 170
O=C(O)c1ccc(C(=O)/C=C/c2ccc(-c3cncnc3)cc2)cc1	> 260
CC(C)c1cccc(C(C)C)c1NC(=O)Cc1ccccc1NCC(c1ccccc1)c1ccccc1	174 to 176
CCCCCCc1cc2c(s1)NC(=O)CN=C2c1ccccc1Cl	141 to 143
CCC1(C(NC(=O)c2ccc(Cl)cc2)NC(=NC#N)Nc2cccnc2)COCOC1 (centres undefined)	194 to 195
O=C1N[C@H](C(=O)O)CSCCCCCCCC1CS (some centres undefined)	169 to 173
c1cc(-c2ccc3[nH]cc4c3c2C[C@@H](N(CC2CC2)CC2CC2)C4)on1	146 to 147
CCCCCCCCCCCCCCCC(=O)Nc1cc([N+](=O)[O-])ccc1O	146 to 148
O=C(Nc1ccc(CCc2ccc(Cl)c(Cl)c2)cc1)C1CSc2ccccc2C1=O (centres undefined)	234 to 236
O=C1C2=C(CCCC2)C(=O)N1c1c(F)cc(Cl)c2nc(Cl)sc12	139 to 141
Nc1ncnc2c1c(-c1ccc(OCc3ccccc3)cc1)cn2-c1ccc(OCCn2ccnc2)cc1	105 to 107
CC(C)(c1ccc(-c2nc(Nc3ccc(F)cc3)ncc2C#N)cc1)N1CCCC1	124
CN(C)C(=O)Oc1ccc(C[C@H](NC(=O)Nc2ccccc2S(=O)(=O)c2ccccc2)C(=O)O)cc1	115
CCOC(=O)c1oc(SC)c2c1CCCC2=O	123 to 124
